PubChem BioAssay AID2060892 (Molecular Pharmacology Branch, DTP, NCI, 2025)

Test system: HOP-62 complex spheroids with HUVEC/MSC, viability
Test: Anticancer human tumor HOP-62 cell line growth inhibition [RAS];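 also: spheroids exposed to agents for seven days before readout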;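 as to viability, T/C: 100% = DMSO vehicle control viability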
Details: for IC50: curve of first compound; for viability, T/C: stronger effect = lower value
Excerpt: RAS pathway inhibitors in Combinations in Complex Spheroids
A high-throughput screen of multi-cell type tumor spheroids was designed to identify active combinations of RAS pathway inhibitors and targeted small molecules. Complex spheroids include a stromal component modeled by human endothelial cells (HUVEC) and fibroblasts modeled by human mesenchymal stem cells (MSCs). The concentration ranges selected for each drug and investigational agent were based upon clinically achievable concentrations if the clinical Cmax of the agent was known.
Compounds. The drugs and investigational agents: abemaciclib (NSC768073), cobimetinib (NSC768068), divarasib (GDC6063, NSC841802), docetaxel (NSC628503), GDC-1971 (RLY-1971, NSC841576), gemcitabine (NSC613327), inavolisib (NSC800729), ipatasertib (NSC767898), KB-0742 (NSC834161), MRTX-1133 (NSC836407), osimertinib (NSC779217), RMC-4630 (NSC839698), RMC-6236 (NSC851965), RMC-6291 (NSC852671), Ro-3306 (NSC812927), sapanisertib (NSC764658), SN-38 (NSC673596), staurosporine (NSC755774), SY5609 (NSC837396), and tovorafenib (DAY101, NSC766906), were obtained from the National Cancer Institute (NCI) Developmental Therapeutics Program Chemical Repository. The FDA-approved anticancer drug set is available from the NCI Developmental Therapeutics Program. […] The stock solutions were prepared in dimethyl sulfoxide (DMSO, Sigma-Aldrich, St. Louis, MO, cat. D2650) at 800-fold the tested concentration and stored at -70 degrees C prior to their use. All drugs and investigational agents were tested over a range starting from a high concentration at or near the clinical Cmax and decreasing in half-log increments. If the clinical Cmax for an agent had not been determined, the highest concentration tested was 10 microM.
Cell Culture. All cells were maintained in an incubator at 37 degrees C and 5% CO2 with 95% humidity. The PDC lines were cultured according to standard operating procedures established by the NCI PDMR. All PDCs were thawed and cultured in Matrigel-coated flasks prepared with a working solution of 1X Ham's F-12 nutrient mix, without supplementation (Invitrogen, Waltham, MA, cat. 11765054), 100 U/mL penicillin-streptomycin (Invitrogen, cat. 15140122), and 2.5% Matrigel (Corning Inc., Corning, NY, cat. 354248) for the first three passages. The 362531-283-R-J2-PDC and 782815-120-R-J1-PDC lines were cultured in 6C/Colon 1B media, which includes advanced DMEM/F-12 (Thermo Fisher Scientific, cat. 12634028), 10 mM HEPES (Thermo Fisher Scientific, cat. 15630080), 1X GlutaMAX supplement (Thermo Fisher Scientific, cat. 35050061), 0.1 mg/mL primocin (InvivoGen, San Diego, CA, cat. ant-pm-2), 10% defined fetal bovine serum, heat inactivated (HyClone Laboratories Inc., Logan, UT, cat. SH30070.03HI), 50% L-WRN conditioned media (ATCC, cat. CRL-3276), 1.25 mM N-Acetyl-L-cysteine (Sigma-Aldrich, cat. A9165), 10 mM nicotinamide (Sigma-Aldrich, cat. N0636), 1X B-27 supplement (Thermo Fisher Scientific, cat. 17504044), 1X N-2 supplement (Thermo Fisher Scientific, cat. 17502048), 50 ng/mL human EGF (Thermo Fisher Scientific, cat. PHG0311), and 10 microM Y-27632 dihydrochloride (Tocris Bioscience, cat. 1254). The K12877-001-R-J1-PDC line was cultured in 6I media, which includes all 6C/Colon 1B media plus 10 ng/mL human FGF-10 (PeproTech, cat. 100-26), 1 ng/mL human FGF-2 (PeproTech, cat. 100-18B), 1 µM prostaglandin E2 (Tocris Bioscience, cat. 2296), […] hydrocortisone (Sigma-Aldrich, cat. H4001), and […] bovine insulin (Sigma-Aldrich, cat. I6634). The K86415-001-R-J1-PDC line was cultured in 6D media, which includes all 6C/Colon 1B media components minus the L-WRN conditioned media. The 485176-168-R4-J1-PDC was cultured in PANC media, which includes all 6C/Colon 1B media plus 100 ng/mL human FGF-10 (PeproTech, cat. 100-26), 500 nM SB-431542 (Selleckchem, cat. S1067), and 10 nM gastrin (Tocris Bioscience, cat. 3006). […]

## CC(Nc1ccc2c(c1)OCCn1cc(N3C(=O)OCC3C(F)F)nc1-2)C(N)=O (configuration not stated) + CCn1c(-c2cc(N3CCN(C)CC3)cnc2C(C)OC)c2c3cc(ccc31)-c1csc(n1)CC(NC(=O)C1CC1C)C(=O)N1CCCC(N1)C(=O)OCC(C)(C)C2
Second compound 0.000949 µM
  IC50: 1370 nM
Second compound 0.003 µM
  IC50: 365 nM
Second compound 0.00949 µM
  IC50: < 31.6 nM
Second compound 0.03 µM
  IC50: < 31.6 nM
Second compound 0.0949 µM
  IC50: < 31.6 nM
Second compound 0.3 µM
  IC50: < 31.6 nM
Second compound 0.000949 µM, first compound 0.0316 µM
  viability, T/C: 91.4%
Second compound 0.000949 µM, first compound 0.1 µM
  viability, T/C: 69.2%
Second compound 0.000949 µM, first compound 0.316 µM
  viability, T/C: 53.9%
Second compound 0.000949 µM, first compound 1 µM
  viability, T/C: 61%
Second compound 0.000949 µM, first compound 3.16 µM
  viability, T/C: 49.9%
Second compound 0.000949 µM, first compound 10 µM
  viability, T/C: 25.9%
Second compound 0.003 µM, first compound 0.0316 µM
  viability, T/C: 75.9%
Second compound 0.003 µM, first compound 0.1 µM
  viability, T/C: 52.7%
Second compound 0.003 µM, first compound 0.316 µM
  viability, T/C: 47.5%
Second compound 0.003 µM, first compound 1 µM
  viability, T/C: 46.2%
Second compound 0.003 µM, first compound 3.16 µM
  viability, T/C: 36.7%
Second compound 0.003 µM, first compound 10 µM
  viability, T/C: 15.7%
Second compound 0.00949 µM, first compound 0.0316 µM
  viability, T/C: 48.4%
Second compound 0.00949 µM, first compound 0.1 µM
  viability, T/C: 36.8%
Second compound 0.00949 µM, first compound 0.316 µM
  viability, T/C: 36.1%
Second compound 0.00949 µM, first compound 1 µM
  viability, T/C: 27.4%
Second compound 0.00949 µM, first compound 3.16 µM
  viability, T/C: 19.2%
Second compound 0.00949 µM, first compound 10 µM
  viability, T/C: 12.6%
Second compound 0.03 µM, first compound 0.0316 µM
  viability, T/C: 33.1%
Second compound 0.03 µM, first compound 0.1 µM
  viability, T/C: 23.2%
Second compound 0.03 µM, first compound 0.316 µM
  viability, T/C: 22.5%
Second compound 0.03 µM, first compound 1 µM
  viability, T/C: 21.5%
Second compound 0.03 µM, first compound 3.16 µM
  viability, T/C: 13.8%
Second compound 0.03 µM, first compound 10 µM
  viability, T/C: 14.7%
Second compound 0.0949 µM, first compound 0.0316 µM
  viability, T/C: 27.1%
Second compound 0.0949 µM, first compound 0.1 µM
  viability, T/C: 24.8%
Second compound 0.0949 µM, first compound 0.316 µM
  viability, T/C: 20.5%
Second compound 0.0949 µM, first compound 1 µM
  viability, T/C: 21.5%
Second compound 0.0949 µM, first compound 3.16 µM
  viability, T/C: 12.8%
Second compound 0.0949 µM, first compound 10 µM
  viability, T/C: 14%
Second compound 0.3 µM, first compound 0.0316 µM
  viability, T/C: 32.5%
Second compound 0.3 µM, first compound 0.1 µM
  viability, T/C: 20.1%
Second compound 0.3 µM, first compound 0.316 µM
  viability, T/C: 21.3%
Second compound 0.3 µM, first compound 1 µM
  viability, T/C: 17.3%
Second compound 0.3 µM, first compound 3.16 µM
  viability, T/C: 13.4%
Second compound 0.3 µM, first compound 10 µM
  viability, T/C: 15.7%
